Read-outs that look alike come from different tables or passages of the source.
What was measured:
[1] = biological target: T1, AHR (Mus musculus, UniProt P30561)
T1 sequence (P30561 1-848): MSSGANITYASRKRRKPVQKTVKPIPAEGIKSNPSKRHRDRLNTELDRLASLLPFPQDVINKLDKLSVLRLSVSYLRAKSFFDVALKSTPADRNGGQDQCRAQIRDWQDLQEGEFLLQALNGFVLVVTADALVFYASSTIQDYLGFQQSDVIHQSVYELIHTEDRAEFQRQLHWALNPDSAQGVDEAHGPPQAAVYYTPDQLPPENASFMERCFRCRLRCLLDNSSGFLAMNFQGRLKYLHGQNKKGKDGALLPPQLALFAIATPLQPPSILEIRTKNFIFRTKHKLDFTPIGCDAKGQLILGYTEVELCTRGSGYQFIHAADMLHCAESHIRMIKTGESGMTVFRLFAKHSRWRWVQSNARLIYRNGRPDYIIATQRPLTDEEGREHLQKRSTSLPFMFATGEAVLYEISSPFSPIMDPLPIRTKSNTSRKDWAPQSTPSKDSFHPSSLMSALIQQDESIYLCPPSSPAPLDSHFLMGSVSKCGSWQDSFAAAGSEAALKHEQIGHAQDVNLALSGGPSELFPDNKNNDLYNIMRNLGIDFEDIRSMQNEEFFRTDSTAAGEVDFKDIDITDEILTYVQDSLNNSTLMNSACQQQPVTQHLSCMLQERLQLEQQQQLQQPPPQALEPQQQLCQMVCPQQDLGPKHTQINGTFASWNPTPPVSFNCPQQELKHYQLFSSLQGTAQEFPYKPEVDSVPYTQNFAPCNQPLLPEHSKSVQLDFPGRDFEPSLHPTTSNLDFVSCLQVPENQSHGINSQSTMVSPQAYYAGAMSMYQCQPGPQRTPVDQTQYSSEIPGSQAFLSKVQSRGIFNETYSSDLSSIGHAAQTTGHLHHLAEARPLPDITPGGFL
Excerpt: The data distribution is represented by box plots, showing the 25th and 75th percentile together with the median, whiskers represent the 10th and 90th percentile, respectively (P<0.001, one way ANOVA on ranks, followed by Dunns' method). d, AHR Western blots of two different nuclear and cytoplasmic fractions each of control (1,2), Kyn-treated (3,4) and TCDD-treated (5,6) human LN-229 glioma cells. e, Dioxinresponsive element (DRE) chemical activated luciferase gene expression in U87 glioma cells treated with indicated Kyn concentrations (n=2). f, Radioligand binding assay with indicated concentrations of L-3H-Kyn using mouse liver cytosol from Ahr-proficient and Ahr-deficient mice.
L-3H-Kyn with a specific activity of 11 Ci/mmol was obtained from Quotient Bioresearch (Radiochemicals) Ltd. (Cardiff, UK). The binding assays with L-3H-Kyn using mouse liver cytosol from Ahr-proficient and Ahr-deficient mice were performed. Specific binding was defined as the difference of radioactivity between Ahr-proficient and Ahr-deficient cytosol.

[2] = system: AHR response genes; experiment: Microarray analysis of Kyn-treated U87 glioma cells; type: cell-based, human; conditions: U87, 100 μM Kyn, 8 h and 24 h
Experimental: U87 glioma cells were treated with 100 μM Kyn for 8 h or 24 h, after which the cells were harvested and RNA isolated using the RNAeasy-Kit (Qiagen). The RNA was subjected to microarray analyses as detailed in the Supplementary Methods. For each of the four treatments (8 h, 24 h, Kyn-treated, untreated) two arrays were hybridised and the mean log 2 ratios of gene expression in Kyn-treated vs. untreated samples were calculated. Further analyses of the data are detailed in the Supplementary Methods. For clinical samples microarray and clinical data were acquired from the REpository for Molecular BRAin Neoplasia DaTa (REMBRANDT) (Supplementary Methods). Survival analysis within the data set of untreated primary glioblastoma (n=362) of The Cancer Genome Atlas (TCGA) network was performed using the Kaplan-Meier-analysis module of the R2 microarray analysis and visualisation platform (http://r2.amc.nl).

[3] = system: T cells; experiment: T cell proliferation (mixed leukocyte reaction, TCR-stimulated T cells); type: cell-based, human
Experimental: Glioma cells were seeded in 96-well plates in RPMI 1640 containing 10% FBS, 100 U/ml penicillin and 100 μg/ml streptomycin. 24 h after seeding […] irradiated (30 Gy) PBMC as stimulators and 2×10^5 PBMC from unrelated donors as responders were added. Six-day MLR were performed and cultures were pulsed with [3H]-methylthymidine (PerkinElmer, Waltham, Mass., USA) for the last 18 h. Cells were harvested, and radionuclide uptake was measured by scintillation counting. Experiments were repeated with six unrelated PBMC donors.

[4] = biological target: T2, AHR (Mus musculus, UniProt P30561); experiment: AHR nuclear translocation (GFP-tagged AHR, mouse hepatoma cells); type: cell-based; conditions: after 1 h; 50 μM Kyn
T2 construct: expressed in transfected cells; host or cells: Tao BpRc1c mouse hepatoma cells
T2 sequence (P30561 10-848): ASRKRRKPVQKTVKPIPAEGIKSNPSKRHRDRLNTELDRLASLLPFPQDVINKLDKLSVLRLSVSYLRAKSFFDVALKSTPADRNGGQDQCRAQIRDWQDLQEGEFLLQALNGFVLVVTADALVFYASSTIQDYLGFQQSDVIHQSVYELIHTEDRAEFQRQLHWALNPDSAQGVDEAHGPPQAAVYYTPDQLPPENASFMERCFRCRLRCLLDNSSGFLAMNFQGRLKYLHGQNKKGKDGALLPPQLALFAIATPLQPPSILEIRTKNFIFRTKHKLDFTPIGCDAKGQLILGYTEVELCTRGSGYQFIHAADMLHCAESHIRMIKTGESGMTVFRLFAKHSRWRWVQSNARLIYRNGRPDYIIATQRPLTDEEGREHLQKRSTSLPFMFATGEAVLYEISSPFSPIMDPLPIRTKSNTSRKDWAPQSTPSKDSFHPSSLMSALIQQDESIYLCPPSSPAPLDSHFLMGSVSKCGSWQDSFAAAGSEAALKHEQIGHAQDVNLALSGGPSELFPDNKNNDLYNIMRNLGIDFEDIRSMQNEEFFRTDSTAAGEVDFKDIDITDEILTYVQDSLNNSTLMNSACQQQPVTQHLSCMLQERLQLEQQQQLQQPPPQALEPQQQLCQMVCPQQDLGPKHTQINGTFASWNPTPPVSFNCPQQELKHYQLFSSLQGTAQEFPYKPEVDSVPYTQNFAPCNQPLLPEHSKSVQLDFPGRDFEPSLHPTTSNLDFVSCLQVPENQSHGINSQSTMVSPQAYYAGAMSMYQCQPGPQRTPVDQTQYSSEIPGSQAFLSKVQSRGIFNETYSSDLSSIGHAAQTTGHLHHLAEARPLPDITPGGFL
Experimental: For detection of AHR translocation 7000 Tao BpRc1c cells with a GFP-tagged AHR per well were exposed to 50 μM Kyn or 50 μM Trp, fixed in 3.7% formaldehyde in PBS, permeabilised in 0.1% Triton X100, incubated with 1 μg/ml Hoechst 33342 (Invitrogen) and imaged on a BD Pathway™ Imager 855 in a non-confocal mode using a 20× U-Apo 340 objective (Olympus, NA 0.75). Further analysis of fluorescence intensity was performed using the Attovision software (BD Biosciences). In addition, the AHR protein content in the nuclear and the cytoplasmic fractions of LN-229 glioma cells was compared by immunoblotting.

[5] = biological target: T3, AHR (Homo sapiens, UniProt P35869); experiment: ethoxyresorufin-O-deethylase (EROD) assay, induction of AHR target gene CYP1A1; type: cell-based
T3 sequence (P35869 11-848): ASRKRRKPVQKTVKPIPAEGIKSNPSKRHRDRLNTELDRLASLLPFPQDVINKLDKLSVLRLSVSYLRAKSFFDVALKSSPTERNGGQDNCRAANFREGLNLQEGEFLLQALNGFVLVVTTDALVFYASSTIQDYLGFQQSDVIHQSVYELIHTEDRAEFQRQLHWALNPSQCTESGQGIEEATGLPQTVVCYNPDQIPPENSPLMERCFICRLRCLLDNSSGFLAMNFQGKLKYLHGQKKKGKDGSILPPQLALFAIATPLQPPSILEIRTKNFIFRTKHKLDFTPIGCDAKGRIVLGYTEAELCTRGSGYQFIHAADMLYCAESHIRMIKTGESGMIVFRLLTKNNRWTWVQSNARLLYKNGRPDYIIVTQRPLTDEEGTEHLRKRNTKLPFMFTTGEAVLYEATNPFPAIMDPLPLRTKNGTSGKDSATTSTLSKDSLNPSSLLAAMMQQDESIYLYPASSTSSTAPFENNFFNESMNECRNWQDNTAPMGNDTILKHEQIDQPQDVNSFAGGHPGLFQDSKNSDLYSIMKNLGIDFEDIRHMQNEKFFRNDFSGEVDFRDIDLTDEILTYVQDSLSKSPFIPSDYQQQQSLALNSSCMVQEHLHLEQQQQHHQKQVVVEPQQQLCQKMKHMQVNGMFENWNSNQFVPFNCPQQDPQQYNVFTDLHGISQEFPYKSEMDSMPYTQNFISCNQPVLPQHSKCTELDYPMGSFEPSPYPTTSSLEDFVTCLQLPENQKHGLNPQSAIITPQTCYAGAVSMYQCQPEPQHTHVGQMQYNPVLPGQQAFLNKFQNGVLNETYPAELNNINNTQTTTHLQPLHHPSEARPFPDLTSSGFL
Excerpt: Such an inhibition may occur if the compound binds to an interaction domain of the AHR or its ligand binding domain and thereby inhibits the biological function of the AHR as specified elsewhere herein. Preferably, the inhibitor blocks the ligand binding domain for kynurenin, i.e. interacts with the ligand binding domain of the PAS-B domain or the ligand binding domain formed by Tyr310, Phe324, His326 and Arg352 (amino acid positions corresponding to human AHR). Alternatively, the compound may elicit an allosteric effect on the AHR polypeptide resulting in an inhibition of the biological function as well. An indirect inhibition can be elicited by a compound which reduces or prevents the transcription and/or translation of AHR polypetides and, thus, the amount of available AHR polypeptides in a cell. The AHR inhibitor shall at least reduce the AHR activity to a statistically significant extent. Of course, preferably, the inhibitor will reduce the AHR activity below the detectable limits. […] The activity of AHR can be detected by determining induction of the gene expression of its endogenous target gene CYP1A1 by an ethoxyresorufin-O-deethylase (EROD) assay.

[6] = system: glioma cells; experiment: Motility, clonogenic survival and sphere formation of glioma cells; type: cell-based, human
Experimental: Tumor weight was calculated using the equation: tumor weight (g)=(length (cm)×width (cm)2)×0.5. e, IFN-γ-release of T cells of mice bearing subcutaneous Tdo-expressing tumors (black bar) in comparison to T cells of mice bearing Tdo-deficient tumors (white bar) after restimulation with glioma lysates measured by ELISpot (n=3). f, Lysis of GL261 murine glioma cells by spleen cells of mice with Tdo-expressing GL261 tumors in comparison to those with a subcutaneous Tdo-deficient GL261 tumors measured by chromium release (n=4). g, Quantification of the migrated distances of sh-c (open squares) and sh-TDO (solid circles) cells into a collagen matrix (n=3, P=0.004, 0.0005 and 0.01 for 24, 48 and 72 h, respectively). h, Clonogenic survival of sh-c (white bar) and sh-TDO (black bar) U87 cells (n=3). i, Matrigel boyden chamber assay of U87 glioma cells in the absence or presence of 70 μM Trp without or with 30 μM or 60 μM Kyn (n=3). j, Clonogenic survival of LN-18 glioma cells in the absence or presence of 70 μM Trp without or with 30 μM or 60 μM Kyn (n=3). k, Representative cranial MRIs, H&E and nestin stainings of CD1 nu/nu mice implanted with sh-c (upper panel) or sh-TDO (lower panel) U87 glioma cells. […]

[7] = biological target: T3, AHR
Experimental: Dual luciferase/renilla assays were performed as detailed in the Supplementary Methods. For analysis of DRE-driven reporter gene activity in response to various Trp metabolites, the pGL3-promotor expression plasmid and the control plasmid pRL-SV40, expressing renilla luciferase were used (Promega, Heidelberg, Germany).

[8] = biological target: T3, AHR; experiment: Inhibition of ligand-induced AHR activation and AHR-regulated gene expression by an AHR antagonist; type: cell-based; design: Malignant glioma cell lines as well as GIC express the AHR constitutively; endogenous in cells
Experimental: TDO expression was analysed by immunohistochemistry in human tumors. Its relevance for Trp degradation was determined using genetic knockdown or overexpression of TDO. Trp and Kyn were measured in cell culture supernatants, human sera and xenograft tissue by HPLC. Mixed leukocyte reactions, chromium release, ELISpot and staining of immune cells in tumor tissues were used to assess the immune effects of TDO activity. Cell cycle analysis, matrigel and spheroid invasion assays, scratch assays, sphere formation assays and clonogenicity assays were employed to analyse the autocrine effects of TDO activity. All animal procedures followed the institutional laboratory animal research guidelines and were approved by the governmental authorities. Orthotopic implantation of human glioma cells with and without stable knockdown of TDO into CD1nu/nu mice, s.c. injection of these cells into NK-depleted or wildtype CD1nu/nu mice and s.c. injection of murine Tdo-proficient and Tdo-deficient GL261 cells into syngeneic C57BL/6N mice were performed to analyse the autocrine and paracrine effects of TDO activity in vivo. Microarray analysis of Kyn-treated human glioma cells was performed to identify signalling pathways activated by Kyn. Analysis of AHR translocation, DRE-luciferase assays and radioligand binding assays confirmed activation of the AHR by Kyn. […]

Kynurenin
Kd [1]: ~4 µM
Induction of AHR response genes [2]: broad induction of AHR response genes
Proliferation of T cell receptor-stimulated CD4+ and CD8+ T cells [3]: concentration-dependently inhibited
Allogeneic T cell proliferation with TDO knockdown glioma cells ([3]; 100 μM Kyn added to sh-TDO U87 cells (FIG. 2b)): prevented the restoration of T cell proliferation
Translocation of the AHR into the nucleus [4]: led to translocation of the AHR into the nucleus
EC50 [5]: 12.3 µM
Motility and clonogenic survival of glioma cells ([6]; absence of Trp, 30 or 60 μM Kyn (FIG. 2i,j)): restored motility and clonogenic survival
Sphere formation of GIC ([6]; glioma-initiating cells): enhanced
EC50 [7]: 36.6 µM

COc1ccc(-c2cc(=O)c3ccccc3o2)cc1OC [3,4-DMF, 3,4-dimethoxylflavone]
Activation of the AHR and upregulation of AHR-regulated gene expression in response to Kyn ([8]; agonist Kyn): inhibited
Activation of the AHR by Kyn, TCDD and 3-MC ([8]; three ligands: Kyn, TCDD, 3-methylcholanthrene): inhibited the activation of the AHR by all three ligands
